ChEMBL document CHEMBL1136399, “Anti-AIDS agents 54. A potent anti-HIV chalcone and flavonoids from genus Desmos” (Bioorg Med Chem Lett, 2003)
Converted amounts (≈) assume the structure as drawn.

Assays:
H9 [1] = assay: Effective concentration against HIV-1 replication in H9 lymphocytic cells; No suppression; type: functional, cell-based, Homo sapiens
H9 [2] = assay: Concentration that inhibits uninfected H9 cell growth by 50%.; type: functional, cell-based; conditions: Homo sapiens
H9 [3] = assay: Concentration that inhibits uninfected H9 cell growth by 50%.; Not dissolved; type: functional, cell-based, Homo sapiens
[4] = Therapeutic index determined by ratio of IC50 to EC50; conditions: read-out: Therapeutic index
H9 [5] = assay: Effective concentration against HIV-1 replication in H9 lymphocytic cells; type: functional, cell-based; conditions: Homo sapiens
H9 [6] = assay: Concentration that inhibits uninfected H9 cell growth by 50%.; Did not dissolve; type: functional, cell-based, Homo sapiens

Compound	EC50 (H9 [1])	IC50 (H9 [2])	other results
COc1cc2oc(-c3ccccc3)cc(=O)c2c(O)c1O	Not Active	11.5 µg/mL (≈ 40.5 µM)	
CC1=C(O)C(C)(C)C2=C(C(=O)C[C@@H](c3ccccc3)O2)C1=O	Not Active	1.89 µg/mL (≈ 6.34 µM)	
Cc1c(O)c(C=O)c2oc(-c3ccccc3)cc(=O)c2c1O			IC50 (H9 [3]): Insoluble
COc1c(C)c(O)c(/C(O)=C/C(=O)c2ccccc2)c(O)c1C=O		10.7 µg/mL (≈ 32.6 µM)	selectivity ratio [4]: 489; EC50 (H9 [5]): 0.022 µg/mL (≈ 0.067 µM)
Cc1c(O)c(C=O)c(O)c2c(=O)cc(-c3ccccc3)oc12			IC50 (H9 [6]): Insoluble
COc1c(C)c(O)c(C=O)c2c1C(O)C[C@@H](c1ccccc1)O2 (stereo not given in full)	Not Active	24.2 µg/mL (≈ 77 µM)	
COc1c(C)c(O)c2c(=O)cc(-c3ccccc3)oc2c1C	Not Active	19.8 µg/mL (≈ 66.8 µM)	
COc1c(C)c(O)c2c(c1C)O[C@H](c1ccccc1)CC2=O	Not Active	1.77 µg/mL (≈ 5.93 µM)	
Cc1c(O)c(C=O)c(O)c(/C(O)=C/C(=O)c2ccccc2)c1O	Not Active	18.8 µg/mL (≈ 59.8 µM)	
Cc1c(O)c(C=O)c2c(c1O)C(=O)C[C@@H](c1ccccc1)O2	Not Active	2.15 µg/mL (≈ 7.21 µM)	
Cc1c(O)c(C=O)c(O)c2c1O[C@H](c1ccccc1)CC2=O		104 µg/mL (≈ 349 µM)	selectivity ratio [4]: 45.2; EC50 (H9 [5]): 2.3 µg/mL (≈ 7.71 µM)
COc1c(C)c(O)c2c(c1C=O)O[C@@H](C)[C@H](C(=O)c1ccccc1)C2=O	Not Active	18.9 µg/mL (≈ 53.3 µM)	
COc1c(C)c(O)c(C=O)c2c1C(=O)C[C@@H](c1ccccc1)O2		108 µg/mL (≈ 346 µM)	selectivity ratio [4]: 9.85; EC50 (H9 [5]): 11 µg/mL (≈ 35.2 µM)
Cc1c(O)c(C)c2c(c1O)C(=O)C[C@@H](c1ccccc1)O2 [DEMETHOXYMATTEUCINOL]		20.8 µg/mL (≈ 73.2 µM)	selectivity ratio [4]: 4.18; EC50 (H9 [5]): 4.97 µg/mL (≈ 17.5 µM)
COC1=C(C)C(O)=C(C(=O)/C=C/c2ccccc2)C(=O)C1(C)C [DESMOSDUMOTIN C]	Not Active	2.29 µg/mL (≈ 7.33 µM)	
COc1cc2oc(-c3ccccc3)cc(=O)c2c(O)c1OC [MOSLOFLAVONE]	Not Active	20.2 µg/mL (≈ 67.7 µM)	
Cc1cn([C@H]2C[C@H](N=[N+]=[N-])[C@@H](CO)O2)c(=O)[nH]c1=O [ZIDOVUDINE]			EC50 (H9 [5]): 0.0221 µg/mL (≈ 0.0827 µM)
